Measured values from patent US20160168147A1, “ISOTOPICALLY ENRICHED AZAINDOLES” (Vertex Pharmaceuticals Incorporated, priority 2013, published 2016).

System: Cryopreserved Human Hepatocytes
Test: Assessment of metabolite profile and kinetic isotope effect in human hepatocytes (Example 6)
Type: in vitro ADME
Details: 3 μM and 10 μM, sampled at 120 minutes, LC-MS MRM
Method: Cryopreserved Human Hepatocytes lot TFF (purchased from Celsis) were used. Hepatocytes were thawed using CHRM and suspended in Williams E media containing cell maintenance supplement package. 1000 μL of a final cell concentration 1 million cells/mL were placed in individual incubation wells (24-well plate set-up). Incubation was conducted at 37° C. and kept in a CO2/O2 humidified incubator. 10 μL of compound stock was spiked into cell the matrix to achieve final incubation concentrations of 3 μM and 10 μM. The matrix was swirled prior to the removal of each time-point and 50 μL of sample were removed and added to 200 μL of acetonitrile containing internal standard, IS. Time-points were sampled at 120 minutes using MRM on an ABSciex API5500-QTrap paired with an Agilent 1290 UPLC and a CTC PAL autosampler. A 20-minute gradient method using a HALO C18 2.1×50 mm 2.7 μm column made by Advanced Materials Technology was used for the analysis. /

In the case of `[2H]c1[nH]c2ncccc2c1-c1nccc(N[C@](C)(CC)C(=O)NCC(F)(F)F)n1` [Compound 1-a, (2R)-2-[[2-(2-deuterio-1H-pyrrolo[2,3-b]pyridin-3-yl)pyrimidin-4-yl]amino]-2-methyl-N-(2.2.2-trifluoroethyl)butanamide], the new metabolites observed is reported as “no new metabolites were observed”.
